doi:10.1101/2025.09.09.675175v1 (biorxiv, 2025)

Experiments:
GdpP-C (GdpP313-656) [1] = molecular target: T1, GdpP-C (GdpP313-656) (Staphylococcus aureus, UniProt Q2G2T6); test: isothermal titration calorimetry; assay type: binding
T1 sequence (Q2G2T6 313-655): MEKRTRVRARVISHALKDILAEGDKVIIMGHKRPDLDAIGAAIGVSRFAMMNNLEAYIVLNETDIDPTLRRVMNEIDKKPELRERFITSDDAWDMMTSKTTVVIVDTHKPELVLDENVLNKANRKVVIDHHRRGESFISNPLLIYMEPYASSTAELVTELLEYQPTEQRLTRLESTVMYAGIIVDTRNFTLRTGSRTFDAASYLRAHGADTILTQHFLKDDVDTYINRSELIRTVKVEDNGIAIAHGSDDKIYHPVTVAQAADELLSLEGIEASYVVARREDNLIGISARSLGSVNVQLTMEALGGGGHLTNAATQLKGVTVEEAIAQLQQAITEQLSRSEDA

GdpP-C (GdpP313-656) [2] = molecular target: T1, GdpP-C (GdpP313-656); test: phosphomolybdate blue Pi release, Michaelis-Menten fit; assay type: biochemical

SMILES: CC(=O)CCCCn1c(=O)c2c(ncn2C)n(C)c1=O [pentoxifylline]
- Kd (GdpP-C (GdpP313-656) [1]): 33.2 µM
- Ki (GdpP-C (GdpP313-656) [2]): 68.3 µM
